Assay results reported in US9521847B2, “Synergistic weed control from applications of pyridine carboxylic acid herbicides and synthetic auxin herbicides and/or auxin transport inhibitors” (Dow AgroSciences LLC, priority 2014, dated 2016).
Several values for one entry are separate records, joined by “and”; a condition that tells them apart may be missing. Equal entries are not always repeated. Where two headings read alike, the source gives them in different places.

How the values were obtained:
[1] = tested on: pigweed (AMARE, Amaranthus retroflexus); test: Greenhouse postemergence trial, % visual injury; assay type: in vivo; details: for % visual injury, Obs: AMARE
[2] = tested on: winter rape (BRSNW, Brassica napus); test: Greenhouse postemergence trial, % visual injury; assay type: in vivo; details: for % visual injury, Obs: BRSNW
[3] = tested on: common lambsquarters (CHEAL, Chenopodium album L.); test: Greenhouse postemergence trial, % visual injury; assay type: in vivo; details: for % visual injury, Obs: CHEAL
[4] = tested on: kochia (KCHSC, Kochia scoparia); test: Greenhouse postemergence trial, % visual injury; assay type: in vivo; details: for % visual injury, Obs.: Table 60
Protocol: Following the protocol in Example 1, compound 1 and compound 2 were combined with 2,4 D EHE (EC) and applied to kochia (KCHSC, Kochia scoparia) and the phytotoxicity of the herbicidal compositions was measured.
Following the protocol in Example 1, compound 1 (EC) and Compound 2 (SC) were combined with diflufenzopyr and applied to kochia (Kochia scoparia, KCHSC) and the phytotoxicity of the herbicidal composition was measured.

[5] = tested on: velvetleaf (Abutilon theophrasti, ABUTH); test: Greenhouse postemergence trial, % visual injury; assay type: in vivo
[6] = tested on: nutsedge (Cyperus esculentus, CYPES); test: Greenhouse postemergence trial, % visual injury; assay type: in vivo
[7] = tested on: sunflower (Helianthus annus, HELAN); test: Greenhouse postemergence trial, % visual injury; assay type: in vivo; details: for % visual injury, Obs: HELAN
[8] = tested on: wild buckwheat (Polygonum convolvulus, POLCO); test: Greenhouse postemergence trial, % visual injury; assay type: in vivo; details: for % visual injury, Obs: POLCO
[9] = tested on: grain sorghum (Sorghum vulgare, SORVU); test: Greenhouse postemergence trial, % visual injury; assay type: in vivo
[10] = tested on: common chickweed (Stellaria media, STEME); test: Greenhouse postemergence trial, % visual injury; assay type: in vivo; details: for % visual injury, Obs: STEME
[11] = tested on: Russian thistle (Salsola iberica, SASKR); test: Greenhouse postemergence trial, % visual injury; assay type: in vivo
[12] = tested on: wild mustard (Sinapis arvensis, SINAR); test: Greenhouse postemergence trial, % visual injury; assay type: in vivo
[13] = tested on: barnyardgrass (Echinochloa crus-galli, ECHCG); test: Greenhouse postemergence trial, % visual injury; assay type: in vivo
[14] = tested on: Roundup Ready rape (Brassica napus, BRSNN-RR); test: Greenhouse postemergence trial, % visual injury; assay type: in vivo; details: compound 1 (EC) 5 g ae/ha
spring barley (HORVS) = details: in vivo; for % visual injury (Obs): Hordeum vulgare (spring barley)
maize (ZEAMX) = details: maize (Zea mays), in vivo
common rice (ORYSA) = details: in vivo
[15] = tested on: Canadian thistle (CIRAR, Cirsium arvense); test: Greenhouse postemergence trial, % visual injury; details: for % visual injury, Obs: CIRAR; for pest or weed control at 5 g/ha: Cirsium arvense, post-emergence;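 on all read-outs here: plants sprayed at second to third true leaf stage, injury scored visually 20-22 d later against solvent-blank sprayed controls, 0 meaning no injury and 100 complete kill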
[16] = tested on: spring rape (Brassica napus, BRSNN); test: Greenhouse postemergence trial, % visual injury; details: for plant injury at 5 g/ha: Brassica napus, post-emergence
[17] = tested on: poinsettia (Euphorbia heterophylla, EPHHL); test: Greenhouse postemergence trial, % visual injury
[18] = tested on: wild pansy (Viola tricolor, VIOTR); test: Greenhouse postemergence trial, % visual injury; details: for % visual injury, Obs: VIOTR
[19] = tested on: ivyleaf morningglory (Ipomoea hederacea, IPOHE); test: Greenhouse postemergence trial, % visual injury
[20] = compound 1 (EC) 5 g ae/ha, Table 62
[21] = compound 1 (EC) 5 g ae/ha, Table 63
[22] = read-out: % visual injury (Obs)

## Nc1c(F)c(-c2ccc3cc[nH]c3c2F)nc(C(=O)O)c1Cl [compound 1]
[1]; 5 g ae/ha
  % visual injury, Obs: 75%
[1]; 10 g ae/ha
  % visual injury, Obs: 97%
[1]; compound 1 (EC) 5 g ae/ha
  % visual injury (Obs): 70%
[1]; compound 1 (EC) 10 g ae/ha
  % visual injury (Obs): 85%
[1]; compound 1 SC 5 g ae/ha
  % visual injury (Obs): 70%
[1]; compound 1 SC 10 g ae/ha
  % visual injury (Obs): 85%
[2]; 5 g ae/ha
  % visual injury, Obs: 40%
[2]; 10 g ae/ha
  % visual injury, Obs: 45%
[2]; [20]
  % visual injury, Obs: 30%
[2]; [21]
  % visual injury, Obs: 50%
[2]; compound 1 (EC) 5 g ae/ha
  % visual injury (Obs): 40% and 70%
[2]; compound 1 (EC) 10 g ae/ha
  % visual injury (Obs): 100% and 80%
[2]; compound 1 SC 5 g ae/ha
  % visual injury (Obs): 30%
[2]; compound 1 SC 10 g ae/ha
  % visual injury (Obs): 60%
[3]; 5 g ae/ha
  % visual injury, Obs: 90%
[3]; 10 g ae/ha
  % visual injury, Obs: 100%
[3]; compound 1 (EC) 5 g ae/ha
  % visual injury (Obs): 80%
[4]; 8.75 g ae/ha alone, 20-22 d
  % visual injury Obs: 43%
[4]; Bassia scoparia, post-emergence, KCHSC, 5 g ae/ha, read-out: % visual injury, Obs
  pest or weed control at 5 g/ha: 65%
[4]; Bassia scoparia, post-emergence, KCHSC, 10 g ae/ha, read-out: % visual injury, Obs
  pest or weed control at 10 g/ha: 60%
[4]; KCHSC, compound 1 (EC) 8.75 g ae/ha
  % visual injury, Obs.: 78%
[4]; KCHSC, compound 1 (EC) 17.5 g ae/ha
  % visual injury, Obs.: 80%
[4]; compound 1 (EC) 5 g ae/ha
  % visual injury (Obs): 65%
[4]; compound 1 SC 5 g ae/ha
  % visual injury (Obs): 75%
[4]; compound 1 SC 10 g ae/ha
  % visual injury (Obs): 100%
[5]; Abutilon theophrasti, post-emergence, ABUTH, 5 g ae/ha, read-out: % visual injury, Obs
  pest or weed control at 5 g/ha: 70%
[5]; Abutilon theophrasti, post-emergence, ABUTH, 10 g ae/ha, read-out: % visual injury, Obs
  pest or weed control at 10 g/ha: 60%
[5]; Abutilon theophrasti, post-emergence, ABUTH, compound 1 (EC) 5 g ae/ha, Table 62, read-out: % visual injury, Obs
  pest or weed control at 5 g/ha: 60%
[5]; Abutilon theophrasti, post-emergence, ABUTH, compound 1 (EC) 5 g ae/ha, Table 63, read-out: % visual injury, Obs
  pest or weed control at 5 g/ha: 60%
[5]; compound 1 (EC) 5 g ae/ha
  % visual injury (Obs): 70%
[6]; CYPES, 5 g ae/ha
  % visual injury, Obs: 30%
[6]; Cyperus, post-emergence, 5 g ae/ha alone, 20-22 d, read-out: % visual injury Obs
  pest or weed control at 5 g/ha: 25%
[6]; compound 1 (EC) 5 g ae/ha
  % visual injury (Obs): 30%
[7]; 5 g ae/ha
  % visual injury, Obs: 80%
[7]; [20]
  % visual injury, Obs: 70%
[7]; [21]
  % visual injury, Obs: 70%
[7]; compound 1 (EC) 5 g ae/ha
  % visual injury (Obs): 80%
[8]; 10 g ae/ha
  % visual injury, Obs: 30%
[8]; [20]
  % visual injury, Obs: 65%
[8]; [21]
  % visual injury, Obs: 65%
[8]; compound 1 SC 10 g ae/ha
  % visual injury (Obs): 30% and 40%
[9]; 5 g ae/ha alone, 20-22 d
  % visual injury Obs: 13%
[9]; SORVU, 10 g ae/ha
  % visual injury, Obs: 50%
[9]; compound 1 (EC) 5 g ae/ha
  % visual injury (Obs): 30%
[10]; 5 g ae/ha
  % visual injury, Obs: 60% and 70%
[10]; 10 g ae/ha
  % visual injury, Obs: 70%
[10]; compound 1 (EC) 5 g ae/ha
  % visual injury (Obs): 60%
[11]; compound 1 (EC) 10 g ae/ha
  % visual injury (Obs): 65% and 60%
[11]; compound 1 SC 5 g ae/ha
  % visual injury (Obs): 65%
[11]; compound 1 SC 10 g ae/ha
  % visual injury (Obs): 80%
[12]; compound 1 (EC) 5 g ae/ha
  % visual injury (Obs): 100% and 95%
[12]; compound 1 (EC) 10 g ae/ha
  % visual injury (Obs): 100%
[12]; compound 1 SC 5 g ae/ha
  % visual injury (Obs): 100%
[12]; compound 1 SC 10 g ae/ha
  % visual injury (Obs): 80%
[13]; ECHCG, 5 g ae/ha
  % visual injury, Obs: 65%
[13]; compound 1 (EC) 5 g ae/ha
  % visual injury (Obs): 65%
[14]; Table 62
  % visual injury, Obs: 35%
[14]; Table 63
  % visual injury, Obs: 35%
Spring barley (HORVS)
  % visual injury (Obs): 0%
Spring barley (HORVS); sc
  % visual injury (Obs): 0%
Spring barley (HORVS); spring barley (Hordeum vulgare)
  % visual injury, Obs: 0%
Maize (ZEAMX)
  % visual injury (Obs): 5%
Common rice (ORYSA)
  % visual injury (Obs): 0%
[15]; 5 g ae/ha
  % visual injury, Obs: 10%
[15]; [21]
  % visual injury, Obs: 10%
[15]; [22]
  pest or weed control at 5 g/ha: 10%
[15]; read-out: % visual injury Obs
  pest or weed control at 5 g/ha: 20%
[15]; compound 1 (EC) 5 g ae/ha
  % visual injury (Obs): 10%
[16]; BRSNN, compound 1 (EC) 5 g ae/ha, Table 62
  % visual injury, Obs: 50%
[16]; [22]
  plant injury at 5 g/ha: 50%
[16]; read-out: % visual injury Obs
  plant injury at 5 g/ha: 60%
[16]; read-out: % visual injury, Obs
  plant injury at 5 g/ha: 50%
[17]; Euphorbia heterophylla, post-emergence, read-out: % visual injury, Obs, EPHHL, 5 g ae/ha
  pest or weed control at 5 g/ha: 95%
[17]; Euphorbia heterophylla, post-emergence, read-out: % visual injury, Obs, EPHHL, 10 g ae/ha
  pest or weed control at 10 g/ha: 97%
[17]; compound 1 (EC) 5 g ae/ha
  % visual injury (Obs): 95%
[18]; 10 g ae/ha
  % visual injury, Obs: 10%
[18]; [20]
  % visual injury, Obs: 5%
[18]; [21]
  % visual injury, Obs: 5%
[18]; Viola tricolor, post-emergence, read-out: % visual injury Obs
  pest or weed control at 5 g/ha: 25%
[18]; compound 1 (EC) 5 g ae/ha
  % visual injury (Obs): 10%
[18]; compound 1 SC 2.5 g ae/ha
  % visual injury (Obs): 13%
[18]; compound 1 SC 5 g ae/ha
  % visual injury (Obs): 23%
[19]; Ipomoea, post-emergence, read-out: % visual injury, Obs, IPOHE, 5 g ae/ha
  pest or weed control at 5 g/ha: 20%
[19]; Ipomoea, post-emergence, read-out: % visual injury, Obs, IPOHE, 10 g ae/ha
  pest or weed control at 10 g/ha: 10%
[19]; compound 1 (EC) 5 g ae/ha
  % visual injury (Obs): 20%
